Experimental data as given in ChEMBL document CHEMBL1201862, “PubChem BioAssay data set” (2004).
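Protocol summary: plate cells (96-well), add compound at 5 concentrations, incubate 48 h, interpolate endpoints linearly. GI50 is the concentration that inhibits growth by half.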 Activity calls are given as the source filed them. Rule as the data show it: active = GI50 up to about 1.1 µM and inactive = higher.

Key:
Experiment in all cases: growth of human tumour cells (NCI), 48 h
MDA-MB-231 = test system: MDA-MB-231
IGROV-1 = test system: IGROV-1
LOX IMVI = test system: LOX IMVI
OVCAR-5 = test system: OVCAR-5
KM12 = test system: KM12
SNB-75 = test system: SNB-75
HCT-116 = test system: HCT-116
SK-OV-3 = test system: SK-OV-3
SK-MEL-28 = test system: SK-MEL-28
HOP-62 = test system: HOP-62
EKVX = test system: EKVX
ACHN = test system: ACHN
RPMI-8226 = test system: RPMI-8226
Hs-578T = test system: Hs-578T
CAKI-1 = test system: CAKI-1
SNB-19 = test system: SNB-19
SF-295 = test system: SF-295
MDA-N = test system: MDA-N
CCRF-CEM = test system: CCRF-CEM
UACC-62 = test system: UACC-62
OVCAR-8 = test system: OVCAR-8
Malme-3M = test system: Malme-3M
SK-MEL-5 = test system: SK-MEL-5
HL-60 = test system: HL-60
SN12C = test system: SN12C
DU-145 = test system: DU-145
OVCAR-3 = test system: OVCAR-3
U-251 = test system: U-251
M14 = test system: M14
SW-620 = test system: SW-620
T47D = test system: T47D
BT-549 = test system: BT-549
TK-10 = test system: TK-10
SR = test system: SR
NCI/ADR-RES = test system: NCI/ADR-RES
NCI-H460 = test system: NCI-H460
SF-539 = test system: SF-539
NCI-H522 = test system: NCI-H522
UO-31 = test system: UO-31
MOLT-4 = test system: MOLT-4
OVCAR-4 = test system: OVCAR-4
PC-3 = test system: PC-3
SF-268 = test system: SF-268
HOP-92 = test system: HOP-92
SK-MEL-2 = test system: SK-MEL-2
NCI-H226 = test system: NCI-H226
HCT-15 = test system: HCT-15
A498 = test system: A498
HT-29 = test system: HT-29
K562 = test system: K562
A549 = test system: A549
UACC-257 = test system: UACC-257
MDA-MB-435 = test system: MDA-MB-435
MCF7 = test system: MCF7
786-0 = test system: 786-0
COLO 205 = test system: COLO 205
NCI-H23 = test system: NCI-H23

SMILES: Cc1ccc(-c2nc(C)c(C(=O)Nc3ccc(Cl)cc3)s2)cc1
- GI50 (MDA-MB-231): 30.3 µM (inactive)
- GI50 (IGROV-1): 29.2 µM (inactive)
- GI50 (LOX IMVI): 31.1 µM (inactive)
- GI50 (OVCAR-5): 82.2 µM (inactive)
- GI50 (KM12): > 100 µM (inactive)
- GI50 (SNB-75): 15.1 µM (inactive)
- GI50 (HCT-116): 18.5 µM (inactive)
- GI50 (SK-OV-3): 19 µM (inactive)
- GI50 (SK-MEL-28): > 100 µM (inactive)
- GI50 (HOP-62): 13.4 µM (inactive)
- GI50 (EKVX): 37.8 µM (inactive)
- GI50 (ACHN): 18.4 µM (inactive)
- GI50 (RPMI-8226): > 100 µM (inactive)
- GI50 (Hs-578T): 21.8 µM (inactive)
- GI50 (CAKI-1): 20 µM (inactive)
- GI50 (SNB-19): 20.5 µM (inactive)
- GI50 (SF-295): 15.4 µM (inactive)
- GI50 (MDA-N): > 100 µM (inactive)
- GI50 (CCRF-CEM): > 100 µM (inactive)
- GI50 (UACC-62): 19.6 µM (inactive)
- GI50 (OVCAR-8): 18.8 µM (inactive)
- GI50 (Malme-3M): 36.4 µM (inactive)
- GI50 (SK-MEL-5): 20.1 µM (inactive)
- GI50 (HL-60): > 100 µM (inactive)
- GI50 (SN12C): 31.4 µM (inactive)
- GI50 (DU-145): > 100 µM (inactive)
- GI50 (OVCAR-3): 24.1 µM (inactive)
- GI50 (U-251): 22.1 µM (inactive)
- GI50 (M14): 27.7 µM (inactive)
- GI50 (SW-620): 41.7 µM (inactive)
- GI50 (T47D): > 100 µM (inactive)
- GI50 (BT-549): 13.9 µM (inactive)
- GI50 (TK-10): 20.6 µM (inactive)
- GI50 (SR): > 100 µM (inactive)
- GI50 (NCI/ADR-RES): 29.2 µM (inactive)
- GI50 (NCI-H460): 29.5 µM (inactive)
- GI50 (SF-539): 29.9 µM (inactive)
- GI50 (NCI-H522): 30.5 µM (inactive)
- GI50 (UO-31): 18.8 µM (inactive)
- GI50 (MOLT-4): > 100 µM (inactive)
- GI50 (OVCAR-4): 18.3 µM (inactive)
- GI50 (PC-3): 44.8 µM (inactive)
- GI50 (SF-268): 26.5 µM (inactive)
- GI50 (HOP-92): 23.5 µM (inactive)
- GI50 (SK-MEL-2): 34.4 µM (inactive)
- GI50 (NCI-H226): 20.6 µM (inactive)
- GI50 (HCT-15): > 100 µM
- GI50 (A498): 14.3 µM (inactive)
- GI50 (HT-29): > 100 µM (inactive)
- GI50 (K562): > 100 µM (inactive)
- GI50 (A549): 61.7 µM (inactive)
- GI50 (UACC-257): > 100 µM (inactive)
- GI50 (MDA-MB-435): > 100 µM (inactive)
- GI50 (MCF7): > 100 µM (inactive)
- GI50 (786-0): 15.2 µM (inactive)
- GI50 (COLO 205): > 100 µM (inactive)
- GI50 (NCI-H23): 24.2 µM (inactive)

SMILES: COc1ccc(S(=O)(=O)NC(CCC(=O)NN)C(=O)NN)cc1 (configuration not stated)
- GI50 (MDA-MB-231): > 100 µM (inactive)
- GI50 (IGROV-1): > 100 µM (inactive)
- GI50 (LOX IMVI): > 100 µM (inactive)
- GI50 (OVCAR-5): > 100 µM (inactive)
- GI50 (KM12): > 100 µM (inactive)
- GI50 (SNB-75): > 100 µM (inactive)
- GI50 (HCT-116): > 100 µM (inactive)
- GI50 (SK-OV-3): > 100 µM (inactive)
- GI50 (SK-MEL-28): > 100 µM (inactive)
- GI50 (HOP-62): > 100 µM (inactive)
- GI50 (EKVX): > 100 µM (inactive)
- GI50 (ACHN): > 100 µM (inactive)
- GI50 (RPMI-8226): > 100 µM (inactive)
- GI50 (Hs-578T): > 100 µM (inactive)
- GI50 (CAKI-1): > 100 µM (inactive)
- GI50 (SNB-19): > 100 µM (inactive)
- GI50 (SF-295): > 100 µM (inactive)
- GI50 (MDA-N): > 100 µM (inactive)
- GI50 (CCRF-CEM): > 100 µM (inactive)
- GI50 (UACC-62): > 100 µM (inactive)
- GI50 (OVCAR-8): > 100 µM (inactive)
- GI50 (Malme-3M): > 100 µM (inactive)
- GI50 (SK-MEL-5): > 100 µM (inactive)
- GI50 (HL-60): > 100 µM (inactive)
- GI50 (SN12C): > 100 µM (inactive)
- GI50 (DU-145): > 100 µM (inactive)
- GI50 (OVCAR-3): > 100 µM (inactive)
- GI50 (U-251): > 100 µM (inactive)
- GI50 (M14): > 100 µM (inactive)
- GI50 (SW-620): > 100 µM (inactive)
- GI50 (T47D): > 100 µM (inactive)
- GI50 (BT-549): > 100 µM (inactive)
- GI50 (TK-10): > 100 µM (inactive)
- GI50 (SR): > 100 µM (inactive)
- GI50 (NCI/ADR-RES): > 100 µM (inactive)
- GI50 (NCI-H460): > 100 µM (inactive)
- GI50 (SF-539): > 100 µM (inactive)
- GI50 (NCI-H522): > 100 µM (inactive)
- GI50 (UO-31): > 100 µM (inactive)
- GI50 (MOLT-4): > 100 µM (inactive)
- GI50 (OVCAR-4): > 100 µM (inactive)
- GI50 (PC-3): > 100 µM (inactive)
- GI50 (HOP-92): > 100 µM (inactive)
- GI50 (SK-MEL-2): > 100 µM (inactive)
- GI50 (HCT-15): > 100 µM
- GI50 (A498): > 100 µM (inactive)
- GI50 (HT-29): > 100 µM (inactive)
- GI50 (K562): > 100 µM (inactive)
- GI50 (A549): > 100 µM (inactive)
- GI50 (UACC-257): > 100 µM (inactive)
- GI50 (MDA-MB-435): > 100 µM (inactive)
- GI50 (MCF7): > 100 µM (inactive)
- GI50 (786-0): > 100 µM (inactive)
- GI50 (COLO 205): > 100 µM (inactive)
- GI50 (NCI-H23): > 100 µM (inactive)
